# Test results as given in BindingDB's records for doi:10.1021/jm00101a008 (Centre De Recherche De Vitry-Alfortville, 1992).
# Biological target: Leukotriene B4 receptor (Cavia porcellus)
# Assay: Inhibition of [3H]LTB4 binding to Leukotriene B4 receptor in the guinea pig spleen membranes.
row,SMILES,IC50 [nM]
1,O=C(O)CCCCCCOc1cc(-c2ccccc2)cc(-c2ccccc2)n1,25
2,O=C(O)CCCCCOc1cc(-c2ccc(NC(=O)C(F)(F)F)cc2)cc(-c2ccccc2)n1,150
3,O=C(O)CCCCCOc1cc(-c2ccccc2Cl)cc(-c2ccccc2)n1,200
4,O=C(O)CCCCOc1cc(-c2ccccc2)cc(-c2ccccc2)n1,50
5,CC(CCCCOc1cc(-c2ccccc2)cc(-c2ccccc2)n1)C(=O)O (centres undefined),4
6,O=C(O)CCCCCOc1cc(-c2ccccc2)cc(-c2ccccc2)n1,3
7,CC(CCCCOc1cc(-c2ccccc2)cc(-c2ccccc2F)n1)C(=O)O (centres undefined),4
8,O=C(O)CCCCCOc1cc(-c2ccc([N+](=O)[O-])cc2)cc(-c2ccccc2)n1,50
9,COC(=O)CCCCCOc1cc(-c2ccccc2)cc(-c2ccccc2)n1,40
10,CC(CCCCOc1cc(-c2ccc3c(c2)OCO3)cc(-c2ccccc2)n1)C(=O)O (centres undefined),4.2

# The remaining lines, values ahead:
row,IC50 [nM],SMILES
1,22,CC(C)(CCCCCCOc1cc(-c2ccccc2)cc(-c2ccccc2)n1)C(=O)O
2,2,CC(CCCCOc1cc(-c2ccc3c(c2)OCO3)cc(-c2ccccc2Cl)n1)C(=O)O (centres undefined)
3,6.6,CC(C)(CCCCOc1cc(-c2ccc(N)cc2)cc(-c2ccccc2)n1)C(=O)O
4,1,O=C(O)CCCCCOc1cc(-c2ccc3c(c2)OCO3)cc(-c2ccccc2)n1

# Biological target: Leukotriene B4 receptor (Cavia porcellus)
# Assay: as above
# Remark: another data set of the same source
row,SMILES,IC50 [nM]
1,O=C(O)CCCOc1cc(-c2ccccc2)cc(-c2ccccc2)n1,300
2,NC(=O)CCCCCOc1cc(-c2ccccc2)cc(-c2ccccc2)n1,160
3,COc1ccc(-c2cc(-c3ccccc3)cc(OCCCCCC(=O)O)n2)cc1,1000

# The remaining lines, values ahead:
row,IC50 [nM],SMILES
1,700,N#CCCCCCOc1cc(-c2ccccc2)cc(-c2ccccc2)n1
2,300,Cc1ccc(-c2cc(-c3ccccc3)cc(OCCCCCC(=O)O)n2)cc1
